Reference: EP0033241A2, “Pharmaceutical compositions for rectal administration” (priority 1980, dated 1981)
Counter-ions that a name gives are not always drawn.

Experiments:
in vivo [1] = assay: in vivo; set-up: species or system SD strain male rats; conditions: rat
Text: The numeral 25 in the term "POE (25)" designates the average number of added moles of POE.

in vivo [2] = conditions: rat, im, 50 mg/kg, AUC^°6
[3] = AUC 0 to 4 hours of cefsulodin (sodium) suppositories with polyoxyethylene cholesterol ethers (Experiment Example 4); type: in vivo, rats; conditions: rat, plasma, 20 mg/kg, rectal suppository 50 mg, 10 % cefsulodin (sodium), Witepsol H-5
Method: The anuses were closed with an adhesive agent, and blood samples were taken from the tail veins with time elapsed to determine quantitatively the plasma levels of the compounds having a β-lactam ring by means of the biological assay method.
By incorporating 10 % of cefsulodin (sodium) and 5 % of polyoxyethylene cholesterol ether as shown in Table 5 into Witepsol H-5 used as an excipient, suppositories (50 mg each) were prepared, and administered rectally to rats, in the same manner as in Experiment Example 1, to determine quantitatively the concentration levels of the drug substance in plasma, thereby calculating AUC over the period of 0 to 4 hours. The dosage was 20 mg/Kg.

## CC1(C)S[C@@H]2[C@H](NC(=O)[C@H](N)c3ccccc3)C(=O)N2[C@H]1C(=O)O [Ampicillin, ampicillin]
In vivo [1]; im
  AUC: 14800 ng·h/mL

## Cc1nnc(SCC2=C(C(=O)O)N3C(=O)[C@@H](NC(=O)Cn4cnnn4)[C@H]3SC2)s1 [Cefazolin, cefazolin]
In vivo [1]; im
  AUC: 348000 ng·h/mL

## CO/N=C(\C(=O)N[C@@H]1C(=O)N2C(C(=O)O)=C(CSc3nnnn3C)CS[C@H]12)c1csc(N)n1 [Cefmenoxime (1/2HCl), 7β-[2-(2-aminothiazol-4-yl)-[Z]-2-methoxyimino-acetamide]-3-[(1-methyl-1H-tetrazol-5-yl)thiomethyl]-ceph-3-em-4-carboxylate.l/2hydrochloride]
In vivo [1]; im
  AUC: 190000 ng·h/mL
In vivo [2]
  AUC at 6 h: 190000 ng·h/mL

## CN(C)CCn1nnnc1SCC1=C(C(=O)O)N2C(=O)[C@@H](NC(=O)Cc3csc(N)n3)[C@H]2SC1 [Cefotiam, cefotiam]
In vivo [1]; im
  AUC: 38700 ng·h/mL

## NC(=O)c1cc[n+](CC2=C(C(=O)O)N3C(=O)[C@@H](NC(=O)[C@@H](c4ccccc4)S(=O)(=O)[O-])[C@H]3SC2)cc1 [Cefsulodin sodium, 3-(4-carbamoyl-l-pyridinio-methyl)-7β-(D-α-sulfophenylacetamide)-ceph-3-em-4-carboxylate monosodium salt]
[3]; 5 % POE (10) cholesterol ether
  AUC(0-t) at 4 h: 30400 ng·h/mL
[3]; 5 % POE (20) cholesterol ether
  AUC(0-t) at 4 h: 43000 ng·h/mL
[3]; 5 % POE (25) cholesterol ether
  AUC(0-t) at 4 h: 35900 ng·h/mL
[3]; 5 % POE (30) cholesterol ether
  AUC(0-t) at 4 h: 37900 ng·h/mL
[3]; no polyoxyethylene cholesterol ether (None)
  AUC(0-t) at 4 h: 500 ng·h/mL
In vivo [1]; im
  AUC: 54000 ng·h/mL

## CO/N=C(\C(=O)N[C@@H]1C(=O)N2C(C(=O)O)=CCS[C@H]12)c1csc(N)n1 [FK-749, cephthizoxime]
In vivo [1]; im
  AUC: 77800 ng·h/mL

## CO/N=C(\C(=O)N[C@@H]1C(=O)N2C(C(=O)O)=C(COC(C)=O)CS[C@H]12)c1csc(N)n1 [HR-756, cefotaxime]
In vivo [1]; im
  AUC: 144000 ng·h/mL

## CC1(C)S[C@@H]2[C@H](/N=C/N3CCCCCC3)C(=O)N2[C@H]1C(=O)O [Mecillinam, 6a-[(hexahydro-lH-azepin-l-yl)-methyleneamino]penicillanic acid.sodium salt]
In vivo [1]; im
  AUC: 105000 ng·h/mL

## CC1(C)S[C@@H]2[C@H](NC(=O)C(c3ccccc3)S(=O)(=O)O)C(=O)N2[C@H]1C(=O)O (stereo partly shown) [Sulbenicillin, sulbenicillin]
In vivo [1]
  AUC: 92800 ng·h/mL
In vivo [1]; im
  AUC: 192000 ng·h/mL
